Data: the supplement of paper PMC11451515

Assays:
Details in all cases: 48 h
[1] = test system: NOMO1; assay: cell viability relative to DMSO control; higher = less cytotoxic
Summary of the method: (§1)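 Library compounds in DMSO were pin-dosed in an 11-point threefold series (47 μM to 0.79 nM) onto leukemia cells in 1536-well plates (5 μl). Plates held 500 cells/well of NOMO1 or SEM or 1000 cells/well of P12-Ichikawa, each adapted for at least four passages in each medium. Luminescence was read with CellTiter-Glo One after 48 h at 37°C. Viability means the per-plate percentage relative to DMSO wells, using cell-free wells as background.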

[2] = test system: P12-Ichikawa; assay: as above
Summary of the method: as §1

[3] = test system: SEM cells; assay: as above
Summary of the method: as §1

[4] = test system: NOMO1; assay: AUC of viability dose-response curve (% viability x log10 dose units); higher = less sensitive
Summary of the method: (§2)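 Library compounds in DMSO were applied for 48 h at 37°C at 11 threefold doses (47 μM to 0.79 nM) to medium-adapted leukemia cells in 1536-well plates holding 500 or 1000 cells/well. Luminescence from CellTiter-Glo One was normalised plate by plate against DMSO and cell-free wells. Area under the curve came from trapezoidal integration of a log-logistic fit, after scaling curves that rose above full viability and discarding those that failed quality control. The fit had four parameters and used log10 doses.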

[5] = test system: P12-Ichikawa; assay: as above
Summary of the method: as §2

[6] = test system: SEM cells; assay: as above
Summary of the method: as §2

CN(C)c1ccc2cc(C(=O)N[C@@H](CCCNC(=N)CCl)C(=O)NCc3ccccc3)ccc2c1
cell viability [%]
Details	[1]	[2]	[3]
HPLM + 10% dialyzed FBS, 0.000781 µM	108	103	114
HPLM + 10% dialyzed FBS, 0.00234 µM	128	113	115
HPLM + 10% dialyzed FBS, 0.00702 µM	108	105	101
HPLM + 10% dialyzed FBS, 0.0211 µM	121	113	115
HPLM + 10% dialyzed FBS, 0.0632 µM	125	112	117
HPLM + 10% dialyzed FBS, 0.19 µM	107	103	112
HPLM + 10% dialyzed FBS, 0.569 µM	112	108	113
HPLM + 10% dialyzed FBS, 1.71 µM	112	107	121
HPLM + 10% dialyzed FBS, 5.12 µM	106	104	110
HPLM + 10% dialyzed FBS, 15.4 µM	87.2	93.9	101
HPLM + 10% dialyzed FBS, 46.1 µM	14	19	11.7
RPMI 5 mM glucose + 10% FBS, 0.000781 µM	92	121	113
RPMI 5 mM glucose + 10% FBS, 0.00234 µM	119	111	112
RPMI 5 mM glucose + 10% FBS, 0.00702 µM	104	97.9	104
RPMI 5 mM glucose + 10% FBS, 0.0211 µM	96.3	115	111
RPMI 5 mM glucose + 10% FBS, 0.0632 µM	98.5	106	112
RPMI 5 mM glucose + 10% FBS, 0.19 µM	102	116	110
RPMI 5 mM glucose + 10% FBS, 0.569 µM	97	122	120
RPMI 5 mM glucose + 10% FBS, 1.71 µM	98.6	116	90.9
RPMI 5 mM glucose + 10% FBS, 5.12 µM	100	104	101
RPMI 5 mM glucose + 10% FBS, 15.4 µM	85.4	93	74.1
RPMI 5 mM glucose + 10% FBS, 46.1 µM	8.34	9.92	5.29
RPMI 5 mM glucose + 10% dialyzed FBS, 0.000781 µM	114	109	104
RPMI 5 mM glucose + 10% dialyzed FBS, 0.00234 µM	109	108	105
RPMI 5 mM glucose + 10% dialyzed FBS, 0.00702 µM	103	108	99.7
RPMI 5 mM glucose + 10% dialyzed FBS, 0.0211 µM	110	109	104
RPMI 5 mM glucose + 10% dialyzed FBS, 0.0632 µM	111	110	122
RPMI 5 mM glucose + 10% dialyzed FBS, 0.19 µM	119	101	108
RPMI 5 mM glucose + 10% dialyzed FBS, 0.569 µM	115	99.6	115
RPMI 5 mM glucose + 10% dialyzed FBS, 1.71 µM	105	97.1	90
RPMI 5 mM glucose + 10% dialyzed FBS, 5.12 µM	105	106	106
RPMI 5 mM glucose + 10% dialyzed FBS, 15.4 µM	98.7	92	84
RPMI 5 mM glucose + 10% dialyzed FBS, 46.1 µM	12.5	8.85	6.08

AUC of viability dose-response curve
Details	[4]	[5]	[6]
HPLM + 10% dialyzed FBS	443	451	450
RPMI 5 mM glucose + 10% FBS	447	446	434
RPMI 5 mM glucose + 10% dialyzed FBS	451	449	444

CN1CC(=O)\N=C1\NC(=O)NC2=CC(=CC=C2)Cl
AUC of viability dose-response curve
Details	[4]	[5]	[6]
HPLM + 10% dialyzed FBS	452	442	448
RPMI 5 mM glucose + 10% FBS	453	459	471
RPMI 5 mM glucose + 10% dialyzed FBS	468	463	457

CCCCC[C@H](O)/C=C/[C@H]1[C@H](O)CC(=O)[C@@H]1C/C=C\CCCC(=O)O
AUC of viability dose-response curve
Details	[4]	[5]	[6]
HPLM + 10% dialyzed FBS	449	460	456
RPMI 5 mM glucose + 10% FBS	453	457	458
RPMI 5 mM glucose + 10% dialyzed FBS	440	457	460

CCNC(=O)[C@H]1O[C@@H](n2cnc3c(N)nc(NCCc4ccc(CCC(=O)O)cc4)nc32)[C@H](O)[C@@H]1O
cell viability [%]
Details	[1]	[2]	[3]
HPLM + 10% dialyzed FBS, 0.000781 µM	104	108	100
HPLM + 10% dialyzed FBS, 0.00234 µM	83.1	97.9	90.7
HPLM + 10% dialyzed FBS, 0.00702 µM	98.9	101	106
HPLM + 10% dialyzed FBS, 0.0211 µM	103	106	111
HPLM + 10% dialyzed FBS, 0.0632 µM	95.7	109	115
HPLM + 10% dialyzed FBS, 0.19 µM	104	101	107
HPLM + 10% dialyzed FBS, 0.569 µM	96.6	106	107
HPLM + 10% dialyzed FBS, 1.71 µM	95.6	103	110
HPLM + 10% dialyzed FBS, 5.12 µM	87.3	104	106
HPLM + 10% dialyzed FBS, 15.4 µM	96.6	96.8	104
HPLM + 10% dialyzed FBS, 46.1 µM	91	96.1	78.8
RPMI 5 mM glucose + 10% FBS, 0.000781 µM	104	105	83.6
RPMI 5 mM glucose + 10% FBS, 0.00234 µM	91.6	102	33.4
RPMI 5 mM glucose + 10% FBS, 0.00702 µM	94	96.2	91.4
RPMI 5 mM glucose + 10% FBS, 0.0211 µM	102	102	97.6
RPMI 5 mM glucose + 10% FBS, 0.0632 µM	89.4	102	103
RPMI 5 mM glucose + 10% FBS, 0.19 µM	89.3	97.5	108
RPMI 5 mM glucose + 10% FBS, 0.569 µM	86.9	99.9	110
RPMI 5 mM glucose + 10% FBS, 1.71 µM	90.6	99.6	88.1
RPMI 5 mM glucose + 10% FBS, 5.12 µM	89.9	96.4	92
RPMI 5 mM glucose + 10% FBS, 15.4 µM	90.8	93.3	89.6
RPMI 5 mM glucose + 10% FBS, 46.1 µM	84.1	92.2	62.3
RPMI 5 mM glucose + 10% dialyzed FBS, 0.000781 µM	89.3	106	88.3
RPMI 5 mM glucose + 10% dialyzed FBS, 0.00234 µM	104	98.9	84.3
RPMI 5 mM glucose + 10% dialyzed FBS, 0.00702 µM	100	107	101
RPMI 5 mM glucose + 10% dialyzed FBS, 0.0211 µM	93.5	99.8	102
RPMI 5 mM glucose + 10% dialyzed FBS, 0.0632 µM	92.3	105	116
RPMI 5 mM glucose + 10% dialyzed FBS, 0.19 µM	90.8	97.2	116
RPMI 5 mM glucose + 10% dialyzed FBS, 0.569 µM	96.9	108	117
RPMI 5 mM glucose + 10% dialyzed FBS, 1.71 µM	88.7	91.3	96.3
RPMI 5 mM glucose + 10% dialyzed FBS, 5.12 µM	94.5	101	109
RPMI 5 mM glucose + 10% dialyzed FBS, 15.4 µM	78.8	95.9	99
RPMI 5 mM glucose + 10% dialyzed FBS, 46.1 µM	87.8	93.3	74.8

AUC of viability dose-response curve
Details	[4]	[5]	[6]
HPLM + 10% dialyzed FBS	458	465	470
RPMI 5 mM glucose + 10% FBS	437	456	421
RPMI 5 mM glucose + 10% dialyzed FBS	442	462	469
